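Results reflect a 48-hour exposure of cells in 96-well plates to compound at five concentrations. GI50 is the concentration that inhibits growth by half.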 Calls of active or inactive are those of the source. Cut-off read from the data, not from the text of the source: active = GI50 up to about 1.1 µM and inactive = higher.
Tests used:
Assay in all cases: DTP human tumour cell line panel, 48 h
786-0 = test system: 786-0
CCRF-CEM = test system: CCRF-CEM
HCT-116 = test system: HCT-116
HCT-15 = test system: HCT-15
HOP-62 = test system: HOP-62
HOP-92 = test system: HOP-92
LOX IMVI = test system: LOX IMVI
MCF7 = test system: MCF7
Malme-3M = test system: Malme-3M
PC-3 = test system: PC-3
RXF 393 = test system: RXF 393
SF-295 = test system: SF-295
SF-539 = test system: SF-539
SK-MEL-2 = test system: SK-MEL-2
SK-OV-3 = test system: SK-OV-3
SNB-19 = test system: SNB-19
MDA-MB-435 = test system: MDA-MB-435
NCI-H522 = test system: NCI-H522
HT-29 = test system: HT-29
OVCAR-4 = test system: OVCAR-4

Row | Structure (SMILES) | GI50 (786-0) | GI50 (CCRF-CEM) | GI50 (HCT-116) | GI50 (HCT-15) | GI50 (HOP-62) | GI50 (HOP-92) | GI50 (LOX IMVI) | GI50 (MCF7) | GI50 (Malme-3M) | GI50 (PC-3) | GI50 (RXF 393) | GI50 (SF-295) | GI50 (SF-539) | GI50 (SK-MEL-2) | GI50 (SK-OV-3) | GI50 (SNB-19) | GI50 (MDA-MB-435) | GI50 (NCI-H522) | GI50 (HT-29) | GI50 (OVCAR-4)
1 | NCCc1ccc2c(c1)C(=O)c1c(O)ccc(O)c1C2=O | 2.2 µM (inactive) | 3.36 µM (inactive) | 2.69 µM (inactive) | 4.51 µM | 3.6 µM (inactive) | 4.05 µM (inactive) | 4.11 µM (inactive) | 3.51 µM (inactive) | 1.87 µM (inactive) | 3.33 µM (inactive) | > 21.6 µM (inactive) | 4.62 µM (inactive) | 3.02 µM (inactive) | 6.55 µM (inactive) | 5.86 µM (inactive) | 4.72 µM (inactive) | – | – | – | –
2 | COC(=O)/C1=C/c2c([nH]c3ccccc23)/C(C(=O)OC)=C\c2c1[nH]c1ccccc21 [CAULERPIN] | 11.2 µM (inactive) | – | 14.2 µM (inactive) | 22 µM | 10.9 µM (inactive) | – | 18.7 µM (inactive) | 10.3 µM (inactive) | 12.9 µM (inactive) | – | 12.7 µM (inactive) | 40.3 µM (inactive) | 33.5 µM (inactive) | 14.4 µM (inactive) | > 50 µM (inactive) | 33.7 µM (inactive) | 14.7 µM (inactive) | 6.08 µM (inactive) | – | –
3 | CCCCCCCCCCCCCC(=O)OCC1OC(n2cc(F)c(=O)[nH]c2=O)C(NC(=O)OCc2ccccc2)C(OC(=O)CCCCCCCCCCCCC)C1O (stereo unspecified) | > 100 µM (inactive) | > 100 µM (inactive) | > 100 µM (inactive) | > 100 µM | > 100 µM (inactive) | > 100 µM (inactive) | > 100 µM (inactive) | – | > 100 µM (inactive) | – | > 100 µM (inactive) | 22.9 µM (inactive) | > 100 µM (inactive) | > 100 µM (inactive) | > 100 µM (inactive) | > 100 µM (inactive) | – | > 100 µM (inactive) | > 100 µM (inactive) | > 100 µM (inactive)
4 | Nc1nc2c(ncn2C2OC(CO)C(O)C2O)c(=O)o1 (stereo unspecified) | > 100 µM (inactive) | > 23.2 µM (inactive) | > 82.2 µM (inactive) | 42.9 µM | > 100 µM (inactive) | > 100 µM (inactive) | > 58.2 µM (inactive) | – | > 100 µM (inactive) | > 100 µM (inactive) | > 100 µM (inactive) | > 100 µM (inactive) | > 100 µM (inactive) | > 100 µM (inactive) | > 100 µM (inactive) | > 100 µM (inactive) | – | 18.6 µM (inactive) | 26.4 µM (inactive) | > 100 µM (inactive)
5 | C#CCOCn1cc(C)c(=O)[nH]c1=O | > 100 µM (inactive) | > 100 µM (inactive) | > 100 µM (inactive) | > 100 µM | > 100 µM (inactive) | – | > 100 µM (inactive) | > 100 µM (inactive) | > 100 µM (inactive) | > 100 µM (inactive) | – | > 100 µM (inactive) | > 100 µM (inactive) | > 100 µM (inactive) | > 100 µM (inactive) | > 100 µM (inactive) | – | – | > 100 µM (inactive) | –
6 | Cc1nc2ccccc2c(=O)n1-c1ccccc1F | > 100 µM (inactive) | > 100 µM (inactive) | > 100 µM (inactive) | > 100 µM | > 100 µM (inactive) | > 100 µM (inactive) | > 100 µM (inactive) | – | > 100 µM (inactive) | – | > 100 µM (inactive) | > 100 µM (inactive) | > 100 µM (inactive) | > 100 µM (inactive) | > 100 µM (inactive) | > 100 µM (inactive) | – | > 100 µM (inactive) | > 100 µM (inactive) | > 100 µM (inactive)
7 | O=C1CCC(=O)c2ccccc2N1 | > 100 µM (inactive) | > 100 µM (inactive) | > 100 µM (inactive) | > 100 µM | > 100 µM (inactive) | > 100 µM (inactive) | > 100 µM (inactive) | – | > 100 µM (inactive) | – | > 100 µM (inactive) | > 100 µM (inactive) | > 100 µM (inactive) | > 100 µM (inactive) | > 100 µM (inactive) | > 100 µM (inactive) | – | > 100 µM (inactive) | > 100 µM (inactive) | > 100 µM (inactive)
8 | CCCCCCCCCCCCC(O)C1CCC(C(O)CCCCC(O)CCCCCC2CC(CC(C)=O)C(=O)O2)O1 (stereo unspecified) | 6.79 µM (inactive) | 1.43 µM (inactive) | 0.175 µM (active) | 3.35 µM | 4.58 µM (inactive) | 0.986 µM (active) | 1.4 µM (inactive) | 1.01 µM (active) | 0.94 µM (active) | 1.68 µM (inactive) | 4.29 µM (inactive) | 0.133 µM (active) | 3.9 µM (inactive) | 4.95 µM (inactive) | 11.9 µM (inactive) | 2.33 µM (inactive) | – | 4.15 µM (inactive) | 3.5 µM (inactive) | 1.44 µM (inactive)
9 | COc1ccc(-c2[nH]c3ccccc3c2CCNS(=O)(=O)c2ccc(C)cc2)cc1 | > 10 µM (inactive) | 3.72 µM (inactive) | > 8.85 µM (inactive) | 7.6 µM | > 10 µM (inactive) | > 10 µM (inactive) | > 10 µM (inactive) | – | > 10 µM (inactive) | – | > 10 µM (inactive) | > 8.41 µM (inactive) | > 10 µM (inactive) | > 10 µM (inactive) | > 10 µM (inactive) | > 10 µM (inactive) | – | 7.93 µM (inactive) | 6.35 µM (inactive) | –
10 | C=CC(=O)NCCSCCCOC1(C(=O)O)CC(O)C(NC(C)=O)C(C(O)C(O)CO)O1 (stereo unspecified) | > 100 µM (inactive) | – | > 100 µM (inactive) | > 100 µM | – | > 100 µM (inactive) | > 100 µM (inactive) | – | > 100 µM (inactive) | – | > 100 µM (inactive) | > 100 µM (inactive) | > 100 µM (inactive) | > 100 µM (inactive) | > 100 µM (inactive) | > 100 µM (inactive) | – | > 100 µM (inactive) | > 100 µM (inactive) | > 100 µM (inactive)
11 | CCOC(=O)N1CCc2cc(OC)c(OC)c3c2C1CC3=O (stereo unspecified) | > 100 µM (inactive) | > 100 µM (inactive) | > 100 µM (inactive) | > 100 µM | > 100 µM (inactive) | > 100 µM (inactive) | > 100 µM (inactive) | – | > 100 µM (inactive) | – | > 100 µM (inactive) | > 100 µM (inactive) | > 100 µM (inactive) | > 100 µM (inactive) | > 100 µM (inactive) | > 100 µM (inactive) | – | > 100 µM (inactive) | > 100 µM (inactive) | > 100 µM (inactive)
12 | OCCN1CCN2C=C(C3CCCC4N(CCO)CCN34)CCC21 (stereo unspecified) | 41.7 µM (inactive) | 5.56 µM (inactive) | 24.9 µM (inactive) | 27.9 µM | > 100 µM (inactive) | > 60.8 µM (inactive) | 26.7 µM (inactive) | – | > 79.8 µM (inactive) | – | 20.3 µM (inactive) | 98.4 µM (inactive) | 33.7 µM (inactive) | 23.5 µM (inactive) | > 69.2 µM (inactive) | > 100 µM (inactive) | – | > 44 µM (inactive) | 68.9 µM (inactive) | 52.8 µM (inactive)
13 | COC(=O)c1c(CC#N)cccc1CC#N | > 100 µM (inactive) | > 100 µM (inactive) | > 100 µM (inactive) | > 100 µM | > 100 µM (inactive) | > 100 µM (inactive) | > 100 µM (inactive) | – | > 100 µM (inactive) | – | > 100 µM (inactive) | > 100 µM (inactive) | > 100 µM (inactive) | > 100 µM (inactive) | > 100 µM (inactive) | > 100 µM (inactive) | – | > 100 µM (inactive) | > 100 µM (inactive) | > 100 µM (inactive)
14 | O=P(O)(OCC(O)O)OCC(O)O | > 100 µM (inactive) | > 100 µM (inactive) | > 100 µM (inactive) | – | > 100 µM (inactive) | > 100 µM (inactive) | > 100 µM (inactive) | – | > 100 µM (inactive) | – | > 100 µM (inactive) | > 100 µM (inactive) | > 100 µM (inactive) | > 100 µM (inactive) | > 100 µM (inactive) | > 100 µM (inactive) | – | > 100 µM (inactive) | > 100 µM (inactive) | –
15 | CN(C)CCn1c(=O)c2ccc3c4c(nn3CCN(C)C)c3cc(O)ccc3n(c1=O)c24 | < 0.01 µM (active) | < 0.032 µM (active) | < 0.0225 µM (active) | 0.147 µM | < 0.0316 µM (active) | – | < 0.0306 µM (active) | – | 0.354 µM (active) | 0.0659 µM (active) | 0.281 µM (active) | 0.0136 µM (active) | 1.29 µM (inactive) | 0.131 µM (active) | – | – | 0.134 µM (active) | < 0.01 µM (active) | < 0.01 µM (active) | –
16 | COC(=O)c1ccccc1/C=C1\Cc2c(C)cc(C)cc2C1=O | > 100 µM (inactive) | > 100 µM (inactive) | > 100 µM (inactive) | > 100 µM | > 100 µM (inactive) | > 100 µM (inactive) | > 100 µM (inactive) | > 100 µM (inactive) | > 100 µM (inactive) | > 100 µM (inactive) | > 100 µM (inactive) | > 100 µM (inactive) | > 100 µM (inactive) | > 100 µM (inactive) | – | > 100 µM (inactive) | – | > 100 µM (inactive) | > 100 µM (inactive) | > 100 µM (inactive)
17 | CCN(CCN(CC)C(=O)NC)C(=O)NC | > 100 µM (inactive) | > 100 µM (inactive) | > 100 µM (inactive) | > 100 µM | > 100 µM (inactive) | > 100 µM (inactive) | > 100 µM (inactive) | > 100 µM (inactive) | > 100 µM (inactive) | > 100 µM (inactive) | > 100 µM (inactive) | > 100 µM (inactive) | – | > 100 µM (inactive) | > 100 µM (inactive) | > 100 µM (inactive) | – | > 100 µM (inactive) | > 100 µM (inactive) | –
